The results in this text go back to PMC9850727, “Benzoxazolone-5-Urea Derivatives as Human Soluble Epoxide Hydrolase (sEH) Inhibitors” (ACS Omega, 2023).

One data set deals with T1, human recombinant sEH (Homo sapiens, UniProt P34913).
T1 construct: made in house; host or cells: Sf9 cells infected with recombinant baculovirus (from Dr. Bruce Hammock, UC Davis)
T1 sequence (P34913 1-555): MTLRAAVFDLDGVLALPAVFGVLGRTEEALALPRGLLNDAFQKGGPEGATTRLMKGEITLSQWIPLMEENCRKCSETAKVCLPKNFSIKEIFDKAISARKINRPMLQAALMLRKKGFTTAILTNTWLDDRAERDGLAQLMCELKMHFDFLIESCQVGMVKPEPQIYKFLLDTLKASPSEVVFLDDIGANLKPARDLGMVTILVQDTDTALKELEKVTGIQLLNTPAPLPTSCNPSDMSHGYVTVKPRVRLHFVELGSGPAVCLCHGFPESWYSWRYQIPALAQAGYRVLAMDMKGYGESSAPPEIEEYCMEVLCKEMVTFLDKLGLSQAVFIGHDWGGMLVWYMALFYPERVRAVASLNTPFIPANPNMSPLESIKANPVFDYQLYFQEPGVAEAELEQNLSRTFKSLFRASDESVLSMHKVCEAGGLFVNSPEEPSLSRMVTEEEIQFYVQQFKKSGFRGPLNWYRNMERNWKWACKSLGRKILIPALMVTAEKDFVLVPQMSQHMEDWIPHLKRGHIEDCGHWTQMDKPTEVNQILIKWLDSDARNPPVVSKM
The data set is described as follows: Cell-free sEH activity assay (fluorescence-based, PHOME substrate). The class given is biochemical. The settings on record: for sEH activity % of control at 1 μM / sEH activity % of control at 10 μM: residual activity; for inhibition at 10 µM: inhibition as stated in text. From the text:
Inspired by the reported crystallographic screening studies,[12],[13],[15] a series of aryl amide (12, 15–21) or urea (31–39) derivatives with a benzoxazolone head group were synthesized and assessed for inhibition of human recombinant sEH in a cell-free activity assay[27] (Tables 1 and 2). […] Consequently, compounds in which the amide group is attached to the benzoxazolone ring through NH could outperform their direct reversed analogues by more favorable interactions in the central pocket of sEH. In addition, simple methylation of the benzoxazolone NH in 17–18 engendered noticeable differences in sEH inhibition relative to the unmethylated counterparts 15–16, implying that a free NH with H-bond donor property at this location is also important for the observed potency. Subsequently, the positioning of the amide group at the 5-position of the benzoxazolone ring also retained the inhibitory activity.
Human recombinant sEH was expressed and purified as published before.[31] Briefly, Sf9 cells were infected with a recombinant baculovirus (obtained from Dr. Bruce Hammock, University of California, Davis, CA). Following 72 h of transfection, the cells were centrifuged and then sonicated (3 × 10 s at 4 °C) in lysis buffer comprising glycerol (10%), NaHPO4 (50 mM, pH 8), leupeptin (10 μg/mL), NaCl (300 mM), phenylmethanesulfonyl fluoride (1 mM), EDTA (1 mM), and soybean trypsin inhibitor (60 μg/mL). After centrifugation at 100,000g (60 min, 4 °C), the obtained supernatants were subjected to a benzylthio-sepharose-affinity chromatography and eluted with 4-fluorochalcone oxide in PBS containing 1 mM DTT and 1 mM EDTA for purification of sEH. The enzyme was dialyzed and concentrated (Millipore Amicon-Ultra-15 centrifugal filter), and the solution was further assayed for total protein content by a protein detection kit (Bio-Rad Laboratories, Munich, Germany). The epoxide hydrolase activity was measured using a fluorescence-based assay, as reported before.[27] In brief, sEH was diluted in Tris buffer (25 mM, pH 7) containing BSA (0.1 mg/mL) to a suitable enzyme concentration and pretreated with test compounds or 0.1% DMSO as vehicle for 10 min at room temperature. To start the reaction, 50 μM of the PHOME substrate (3-phenyl-cyano(6-methoxy-2-naphthalenyl)methyl ester-2-oxiraneacetic acid), a nonfluorescent compound that is enzymatically converted by sEH into fluorescent 6-methoxy-naphtaldehyde, was added at RT. The reaction was stopped by addition of ZnSO4 (200 mM) after 60 min, and fluorescence was measured (λem 465 nm, λex 330 nm) by employing a NOVOstar microplate reader (BMG LABTECH GmbH, Ortenberg, Germany). If required, the potential fluorescence of test compounds was subtracted from the readout.

Setting [1] is: mean ± SEM, n = 3, benzoxazolone-ureas (Table 2).
The mark [2] stands for this setting: cell-free assay, mean ± SEM, n = 3, benzoxazolone-ureas (Table 2).
Where [3] appears, read: mean ± SEM, n = 3, benzoxazolone-amides (Table 1).
[4] abbreviates: cell-free assay, benzoxazolone-amides (Table 1).

Structures are written as SMILES.

Turning to `O=C(NCc1ccc(C(F)(F)F)cc1)Nc1ccc2oc(=O)[nH]c2c1` [Compound 37, 3-(2-Oxo-2,3-dihydro-1,3-benzoxazol-5-yl)-1-{[4-(trifluoromethyl)phenyl]methyl}urea], the melting point is 213.6 °C (dec.). In addition, at human recombinant sEH (setting [1]), the “sEH activity % of control at 1 μM” value is reported as 12.3 ± 2.5 % of control and the “sEH activity % of control at 10 μM” value is listed as 1.1 ± 1.8 % of control. On human recombinant sEH (setting [2]), the IC50 turned out to be 53 ± 8 nM.
For `O=C(NCc1cccc(Cl)c1)Nc1ccc2oc(=O)[nH]c2c1` [Compound 34, 1-[(3-Chlorophenyl)methyl]-3-(2-oxo-2,3-dihydro-1,3-benzoxazol-5-yl)urea], the melting point is 244.5 °C (dec.). In addition, on human recombinant sEH (setting [1]), the “sEH activity % of control at 1 μM” value is given as 18.6 ± 5.1 % of control and the “sEH activity % of control at 10 μM” value is on record as 7.5 ± 3.4 % of control. For the same compound, the IC50 at human recombinant sEH (setting [2]) amounted to 80 ± 23 nM.
With `O=C(NCc1ccccc1C(F)(F)F)Nc1ccc2oc(=O)[nH]c2c1` [Compound 32, 3-(2-Oxo-2,3-dihydro-1,3-benzoxazol-5-yl)-1-{[2-(trifluoromethyl)phenyl]methyl}urea], the melting point was 237.8 °C (dec.). Besides, at human recombinant sEH (setting [1]), the “sEH activity % of control at 1 μM” value is given as 7.1 ± 5.8 % of control and the “sEH activity % of control at 10 μM” value is on record as 4.7 ± 8.0 % of control. Moreover, the IC50 on human recombinant sEH (setting [2]) was 2 ± 0.42 nM.
For the compound `O=C(Nc1ccc2oc(=O)[nH]c2c1)c1ccc(Oc2ccccc2)cc1` [Compound 21, N-(2-Oxo-2,3-dihydro-1,3-benzoxazol-5-yl)-4-phenoxybenzamide], the melting point was 231 to 233 °C. At human recombinant sEH (setting [3]), the “sEH activity % of control at 1 μM” value is given as 47.4 ± 7.1 % of control and the “sEH activity % of control at 10 μM” value is 14.4 ± 6.8 % of control. Further, the half-maximal inhibitory concentration (IC50) at human recombinant sEH (setting [4]) is about 1000 nM.
Turning to `O=C(NCc1ccc(Cl)cc1)Nc1ccc2oc(=O)[nH]c2c1` [Compound 36, 1-[(4-Chlorophenyl)methyl]-3-(2-oxo-2,3-dihydro-1,3-benzoxazol-5-yl)urea], the melting point was 251 °C (dec.). On human recombinant sEH (setting [1]), the “sEH activity % of control at 1 μM” value is reported as 18.6 ± 2.6 % of control and the “sEH activity % of control at 10 μM” value is 1.9 ± 2.4 % of control. On human recombinant sEH (setting [2]), the IC50 was 120 ± 20 nM.
For `O=C(NCc1cccc(F)c1F)Nc1ccc2oc(=O)[nH]c2c1` [Compound 39, 1-[(2,3-Difluorophenyl)methyl]-3-(2-oxo-2,3-dihydro-1,3-benzoxazol-5-yl)urea], in that order: 259.9 °C (dec.), 14.2 ± 2.7 % of control, 0.8 ± 2.0 % of control and 33 ± 10 nM.
Consider `O=C(Nc1ccc2oc(=O)[nH]c2c1)c1ccc(OCc2ccccc2)cc1` [Compound 20, 4-(Benzyloxy)-N-(2-oxo-2,3-dihydro-1,3-benzoxazol-5-yl)benzamide], for which the melting point lay in the range of 260.7 to 262.8 °C. On human recombinant sEH (setting [3]), the “sEH activity % of control at 1 μM” value is 68.2 ± 6.6 % of control and the “sEH activity % of control at 10 μM” value was 30.0 ± 10.5 % of control. Further, on human recombinant sEH (setting [4]), the IC50 is under 10000 nM.
Turning to `O=C(Nc1ccc(OCc2ccccc2)cc1)c1ccc2[nH]c(=O)oc2c1` [Compound 12, N-[4-(Benzyloxy)phenyl]-2-oxo-2,3-dihydro-1,3-benzoxazole-6-carboxamide], the melting point was over 300 °C. Moreover, at human recombinant sEH (setting [3]), the “sEH activity % of control at 1 μM” value is reported as 91.0 ± 6.1 % of control and the “sEH activity % of control at 10 μM” value is reported as 84.4 ± 3.8 % of control. Further, the “sEH inhibition (in words)” value on human recombinant sEH (cell-free assay) is on record as “devoid of sEH inhibition”. The half-inhibitory concentration (IC50) at human recombinant sEH (setting [4]) is over 10000 nM.
Turning to `O=C(NCc1ccc(F)cc1)Nc1ccc2oc(=O)[nH]c2c1` [Compound 35, 1-[(4-Fluorophenyl)methyl]-3-(2-oxo-2,3-dihydro-1,3-benzoxazol-5-yl)urea], the melting point is 249.3 °C (dec.). Moreover, on human recombinant sEH (setting [1]), the “sEH activity % of control at 1 μM” value is 62.8 ± 3.3 % of control and the “sEH activity % of control at 10 μM” value is recorded as 5.2 ± 3.6 % of control. For the same compound, the half-maximal inhibitory concentration (IC50) at human recombinant sEH (setting [2]) is 570 ± 15 nM.
As for `Cn1c(=O)oc2cc(NC(=O)c3ccc(Oc4ccccc4)cc3)ccc21` [Compound 18, N-(3-Methyl-2-oxo-2,3-dihydro-1,3-benzoxazol-6-yl)-4-phenoxybenzamide], the melting point lay within 229.1 to 231.1 °C. For the same compound, on human recombinant sEH (setting [3]), the “sEH activity % of control at 1 μM” value is 83.7 ± 9.8 % of control and the “sEH activity % of control at 10 μM” value was 91.5 ± 2.8 % of control. Moreover, the IC50 at human recombinant sEH (setting [4]) is over 10000 nM.
`O=C(Nc1ccc2[nH]c(=O)oc2c1)c1ccc(Oc2ccccc2)cc1` [Compound 16, N-(2-Oxo-2,3-dihydro-1,3-benzoxazol-6-yl)-4-phenoxybenzamide]: the melting point was 231.8 to 233 °C. Moreover, at human recombinant sEH (setting [3]), the “sEH activity % of control at 1 μM” value was 49.8 ± 6.3 % of control and the “sEH activity % of control at 10 μM” value was 15.2 ± 5.9 % of control. Besides, the inhibition at 10 µM on human recombinant sEH stood at 85%. Further, the IC50 on human recombinant sEH (setting [4]) was about 1000 nM.
For `O=C(Nc1ccc2[nH]c(=O)oc2c1)c1ccc(OCc2ccccc2)cc1` [Compound 15, 4-(Benzyloxy)-N-(2-oxo-2,3-dihydro-1,3-benzoxazol-6-yl)benzamide], in that order: 256.6 to 259 °C, 67.8 ± 10.8 % of control, 28.9 ± 8.1 % of control, 70% and under 10000 nM.
`Cn1c(=O)oc2cc(NC(=O)c3ccc(OCc4ccccc4)cc3)ccc21` [Compound 17, 4-(Benzyloxy)-N-(3-methyl-2-oxo-2,3-dihydro-1,3-benzoxazol-6-yl)benzamide] registered a melting point of 251.8 to 253.7 °C. On human recombinant sEH (setting [3]), the “sEH activity % of control at 1 μM” value is reported as 105.8 ± 15.9 % of control and the “sEH activity % of control at 10 μM” value is on record as 115.1 ± 4.9 % of control. Besides, at human recombinant sEH (setting [4]), the IC50 was over 10000 nM.
For the compound `O=C(NCc1ccccc1Cl)Nc1ccc2oc(=O)[nH]c2c1` [Compound 31, 1-[(2-Chlorophenyl)methyl]-3-(2-oxo-2,3-dihydro-1,3-benzoxazol-5-yl)urea], the melting point was 242.5 °C (dec.). Moreover, on human recombinant sEH (setting [1]), the “sEH activity % of control at 1 μM” value is 3.1 ± 6.2 % of control and the “sEH activity % of control at 10 μM” value is 5.8 ± 6.2 % of control. Further, at human recombinant sEH (setting [2]), the IC50 came to 9.9 ± 2.9 nM.

In general, IC50 refers to the midpoint of a concentration-inhibition curve. The melting point is the temperature of the solid-liquid transition. What is called inhibition is the relative decrease from the control value, in per cent.
